Measured values as given in ChEMBL document CHEMBL5465560, “Selectivity Literature for EUbOPEN Chemogenomic Library” (2024).
pIC50: −log10 of the molar value.

Columns and labels:
MAO-A (MAOA) = MAO-A (MAOA) (Homo sapiens, UniProt P21397); assay: Selectivity interaction (Safety Panel 44tm (Eurofins)) EUB0000162b MAOA; details: at 10 µM, read-out: % of control
[1] = biological target: 5-hydroxytryptamine receptor 2A (Homo sapiens, UniProt P28223); assay: Selectivity interaction (Serotonin 5HT2A Calcium flux assay, agonist and antagonist mode ) EUB0000877a HTR2A
Sequence of 5-hydroxytryptamine receptor 2A (P28223 whole entry): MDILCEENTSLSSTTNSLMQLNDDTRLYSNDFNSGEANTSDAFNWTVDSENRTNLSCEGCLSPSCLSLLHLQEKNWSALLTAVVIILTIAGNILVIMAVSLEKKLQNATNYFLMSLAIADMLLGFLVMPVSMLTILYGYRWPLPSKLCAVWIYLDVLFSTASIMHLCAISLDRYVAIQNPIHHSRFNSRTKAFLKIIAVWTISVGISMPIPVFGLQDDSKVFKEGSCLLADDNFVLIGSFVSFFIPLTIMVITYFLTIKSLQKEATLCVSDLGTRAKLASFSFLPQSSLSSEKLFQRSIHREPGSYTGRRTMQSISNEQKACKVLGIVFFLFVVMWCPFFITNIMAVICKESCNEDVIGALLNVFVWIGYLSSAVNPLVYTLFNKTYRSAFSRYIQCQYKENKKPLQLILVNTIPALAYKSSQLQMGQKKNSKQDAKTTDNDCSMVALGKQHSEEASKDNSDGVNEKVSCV

[2] = biological target: T1, Ephrin type-A receptor 1 (Homo sapiens) (UniProt P21709); assay: Selectivity interaction (KinomeScan (DiscoverX)) EUB0000618a EPHA1; details: at 10 µM
T1 sequence (whole entry): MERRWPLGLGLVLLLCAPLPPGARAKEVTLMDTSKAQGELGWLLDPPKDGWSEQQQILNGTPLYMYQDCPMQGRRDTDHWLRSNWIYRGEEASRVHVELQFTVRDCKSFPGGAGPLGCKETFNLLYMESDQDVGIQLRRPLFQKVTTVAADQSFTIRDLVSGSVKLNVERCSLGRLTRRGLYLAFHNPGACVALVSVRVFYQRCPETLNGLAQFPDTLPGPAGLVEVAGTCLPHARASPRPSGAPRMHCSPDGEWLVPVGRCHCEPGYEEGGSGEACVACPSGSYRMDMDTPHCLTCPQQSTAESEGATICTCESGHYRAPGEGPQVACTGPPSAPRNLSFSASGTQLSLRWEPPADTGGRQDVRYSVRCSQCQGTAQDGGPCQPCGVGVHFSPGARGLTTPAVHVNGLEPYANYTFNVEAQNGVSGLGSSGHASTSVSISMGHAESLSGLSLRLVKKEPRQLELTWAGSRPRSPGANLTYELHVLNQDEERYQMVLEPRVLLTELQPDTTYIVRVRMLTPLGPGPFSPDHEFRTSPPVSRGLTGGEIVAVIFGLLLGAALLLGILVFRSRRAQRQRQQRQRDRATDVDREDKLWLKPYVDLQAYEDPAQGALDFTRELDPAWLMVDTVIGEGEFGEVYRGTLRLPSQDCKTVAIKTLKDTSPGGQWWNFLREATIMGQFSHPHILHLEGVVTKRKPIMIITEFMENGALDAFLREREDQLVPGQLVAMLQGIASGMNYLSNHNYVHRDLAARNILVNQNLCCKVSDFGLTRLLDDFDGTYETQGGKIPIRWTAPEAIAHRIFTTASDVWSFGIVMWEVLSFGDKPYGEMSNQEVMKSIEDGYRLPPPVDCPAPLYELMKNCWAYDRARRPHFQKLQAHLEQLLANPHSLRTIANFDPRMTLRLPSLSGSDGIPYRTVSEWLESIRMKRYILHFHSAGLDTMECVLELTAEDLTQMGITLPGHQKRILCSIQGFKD

[3] = biological target: T2, Serine/threonine-protein kinase LATS1 (Homo sapiens) (UniProt O95835); assay: Selectivity interaction (Ambit KINOMEscan and KiNATiv profiling in Jurkat cells) EUB0000090b LATS1; type: cell-based; details: at 1 µM
T2 sequence (whole entry): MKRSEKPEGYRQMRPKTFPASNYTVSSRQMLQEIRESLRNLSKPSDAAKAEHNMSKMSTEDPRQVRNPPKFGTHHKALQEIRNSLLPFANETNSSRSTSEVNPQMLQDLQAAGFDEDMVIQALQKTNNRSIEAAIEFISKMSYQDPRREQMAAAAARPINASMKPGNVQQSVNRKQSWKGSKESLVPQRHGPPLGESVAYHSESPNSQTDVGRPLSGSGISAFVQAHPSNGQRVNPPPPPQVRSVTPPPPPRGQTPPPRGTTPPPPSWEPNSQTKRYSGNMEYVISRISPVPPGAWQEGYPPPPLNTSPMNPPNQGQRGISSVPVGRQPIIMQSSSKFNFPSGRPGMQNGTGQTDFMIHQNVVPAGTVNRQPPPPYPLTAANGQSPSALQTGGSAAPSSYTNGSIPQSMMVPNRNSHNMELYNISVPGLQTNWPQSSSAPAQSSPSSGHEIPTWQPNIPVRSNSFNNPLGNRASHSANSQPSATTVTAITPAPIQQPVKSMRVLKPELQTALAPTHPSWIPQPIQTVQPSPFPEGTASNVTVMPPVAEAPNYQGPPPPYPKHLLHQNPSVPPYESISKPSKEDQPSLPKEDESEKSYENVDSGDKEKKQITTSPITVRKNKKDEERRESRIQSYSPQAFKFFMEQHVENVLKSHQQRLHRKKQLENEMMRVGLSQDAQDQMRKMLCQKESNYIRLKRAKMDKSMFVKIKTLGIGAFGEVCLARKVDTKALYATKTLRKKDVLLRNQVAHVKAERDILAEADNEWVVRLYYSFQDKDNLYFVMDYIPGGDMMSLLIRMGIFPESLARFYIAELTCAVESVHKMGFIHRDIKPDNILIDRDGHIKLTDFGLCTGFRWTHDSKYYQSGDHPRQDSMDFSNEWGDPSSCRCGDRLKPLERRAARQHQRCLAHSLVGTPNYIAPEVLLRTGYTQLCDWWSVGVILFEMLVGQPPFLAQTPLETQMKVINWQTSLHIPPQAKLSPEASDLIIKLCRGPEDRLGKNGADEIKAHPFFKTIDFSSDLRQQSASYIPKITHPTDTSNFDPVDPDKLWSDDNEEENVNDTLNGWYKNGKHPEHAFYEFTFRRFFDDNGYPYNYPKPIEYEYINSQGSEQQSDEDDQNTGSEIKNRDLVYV

Sequence of MAO-A (MAOA) (P21397 whole entry): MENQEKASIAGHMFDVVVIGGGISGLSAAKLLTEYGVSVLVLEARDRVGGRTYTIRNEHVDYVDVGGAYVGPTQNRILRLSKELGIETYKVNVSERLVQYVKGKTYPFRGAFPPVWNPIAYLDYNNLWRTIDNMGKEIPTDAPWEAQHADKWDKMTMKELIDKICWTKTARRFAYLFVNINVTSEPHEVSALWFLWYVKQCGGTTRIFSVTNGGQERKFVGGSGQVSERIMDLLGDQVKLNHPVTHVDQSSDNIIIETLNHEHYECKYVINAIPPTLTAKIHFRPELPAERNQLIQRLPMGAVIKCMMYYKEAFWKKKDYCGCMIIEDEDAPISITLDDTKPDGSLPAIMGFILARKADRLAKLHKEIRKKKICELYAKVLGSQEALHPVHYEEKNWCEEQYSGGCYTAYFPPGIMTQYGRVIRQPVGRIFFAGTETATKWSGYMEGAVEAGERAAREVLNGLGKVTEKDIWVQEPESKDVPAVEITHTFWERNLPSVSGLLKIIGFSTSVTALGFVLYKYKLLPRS

**Q.** `CN(C)C(=O)Cn1cc(-c2ccc(-c3cncc4ccccc34)cc2)cn1` was tested. Which activity (MAO-A (MAOA)) did it give?
**A.** Its activity is 30%.

**Q.** With `CCC(=O)N1CC[C@H](Nc2ncnc3c2CN(c2cnc(OC)c(C(F)(F)F)c2)CC3)C1` [LENIOLISIB] as the compound, how does the pIC50 [1] read?
**A.** Its pIC50 is < 4.52.

**Q.** `O[C@H]1CC[C@H](Nc2ncc3nc(Nc4c(F)cc(F)cc4F)n([C@H]4CCOC4)c3n2)CC1` was tested. Which % of control [2] did it give?
**A.** The % of control was 100%.

**Q.** `CN(C)C/C=C/C(=O)Nc1ccc(C(=O)N2CCCC(Nc3ncc(Cl)c(-c4c[nH]c5ccccc45)n3)C2)cc1` (centres undefined) was tested. Which % of control [3] did it give?
**A.** The % of control was 84%.
